From the kinase profiling compilation of Christmann-Franck et al. (2016)

How the values were obtained:
Test in all cases: KINOMEscan competition binding
Settings in all cases: compound 10.0 µM
[1] = molecular target: SRC (human) (UniProt P12931)
[2] = molecular target: LATS1 (human) (UniProt O95835)
[3] = molecular target: STK24 (human) (UniProt Q9Y6E0)
[4] = molecular target: TSSK1B (human) (UniProt Q9BXA7)
[5] = molecular target: ACVR1B (human) (UniProt P36896)
[6] = molecular target: PHKG1 (human) (UniProt Q16816)
[7] = tested on: EIF2AK4 KD2 (human), Q9P2K8 [S808G]
[8] = molecular target: CDK7 (human) (UniProt P50613)
[9] = molecular target: DYRK1B (human) (UniProt Q9Y463)
[10] = molecular target: MST4 (human) (UniProt Q9P289)
[11] = molecular target: JAK3 JH1 catalytic (human) (UniProt P52333)
[12] = molecular target: DMPK (human) (UniProt Q09013)
[13] = molecular target: ULK3 (human) (UniProt Q6PHR2)
[14] = molecular target: MAP3K12 (human) (UniProt Q12852)
[15] = molecular target: SRPK1 (human) (UniProt Q96SB4)
[16] = molecular target: DAPK3 (human) (UniProt O43293)
[17] = molecular target: MATK (human) (UniProt P42679)
[18] = molecular target: MUSK (human) (UniProt O15146)
[19] = molecular target: SIK1 (human) (UniProt P57059)
[20] = molecular target: YSK4 (human) (UniProt Q56UN5)
[21] = molecular target: STK39 (human) (UniProt Q9UEW8)
[22] = molecular target: TGFBR1 (human) (UniProt P36897)
[23] = molecular target: PRKX (human) (UniProt P51817)
[24] = molecular target: TNIK (human) (UniProt Q9UKE5)
[25] = molecular target: TESK1 (human) (UniProt Q15569)
[26] = molecular target: DAPK1 (human) (UniProt P53355)
[27] = tested on: RET (human), P07949 [M918T]
[28] = molecular target: MAPK3 (human) (UniProt P27361)
[29] = molecular target: PI4KB (human) (UniProt Q9UBF8)
[30] = molecular target: TLK2 (human) (UniProt Q86UE8)
[31] = molecular target: CDK14 (human) (UniProt O94921)
[32] = molecular target: EPHA1 (human) (UniProt P21709)
[33] = tested on: MET (human), P08581 [Y1235D]
[34] = molecular target: MAP3K4 (human) (UniProt Q9Y6R4)
[35] = molecular target: FES (human) (UniProt P07332)
[36] = molecular target: EPHB2 (human) (UniProt P29323)
[37] = molecular target: MAPKAPK2 (human) (UniProt P49137)
[38] = molecular target: DCLK2 (human) (UniProt Q8N568)
[39] = molecular target: MAP2K3 (human) (UniProt P46734)
[40] = molecular target: HIPK4 (human) (UniProt Q8NE63)
[41] = molecular target: GRK4 (human) (UniProt P32298)
[42] = molecular target: EPHB1 (human) (UniProt P54762)

TGFBR1 (human), sequence (P36897 whole entry, looked up): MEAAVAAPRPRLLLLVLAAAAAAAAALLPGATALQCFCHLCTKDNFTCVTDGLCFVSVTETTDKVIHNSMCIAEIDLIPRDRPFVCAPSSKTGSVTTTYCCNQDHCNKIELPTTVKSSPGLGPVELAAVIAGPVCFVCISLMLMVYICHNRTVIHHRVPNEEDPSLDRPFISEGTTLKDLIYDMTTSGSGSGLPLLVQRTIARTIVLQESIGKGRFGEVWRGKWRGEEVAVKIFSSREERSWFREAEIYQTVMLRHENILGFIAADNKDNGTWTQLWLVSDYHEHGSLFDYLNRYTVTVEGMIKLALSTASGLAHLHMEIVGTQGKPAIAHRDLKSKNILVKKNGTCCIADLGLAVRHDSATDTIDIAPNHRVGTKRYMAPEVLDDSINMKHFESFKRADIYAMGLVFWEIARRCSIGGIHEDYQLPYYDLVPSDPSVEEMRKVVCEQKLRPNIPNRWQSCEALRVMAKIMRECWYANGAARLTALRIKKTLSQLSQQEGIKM
SRPK1 (human), sequence (Q96SB4 whole entry, looked up): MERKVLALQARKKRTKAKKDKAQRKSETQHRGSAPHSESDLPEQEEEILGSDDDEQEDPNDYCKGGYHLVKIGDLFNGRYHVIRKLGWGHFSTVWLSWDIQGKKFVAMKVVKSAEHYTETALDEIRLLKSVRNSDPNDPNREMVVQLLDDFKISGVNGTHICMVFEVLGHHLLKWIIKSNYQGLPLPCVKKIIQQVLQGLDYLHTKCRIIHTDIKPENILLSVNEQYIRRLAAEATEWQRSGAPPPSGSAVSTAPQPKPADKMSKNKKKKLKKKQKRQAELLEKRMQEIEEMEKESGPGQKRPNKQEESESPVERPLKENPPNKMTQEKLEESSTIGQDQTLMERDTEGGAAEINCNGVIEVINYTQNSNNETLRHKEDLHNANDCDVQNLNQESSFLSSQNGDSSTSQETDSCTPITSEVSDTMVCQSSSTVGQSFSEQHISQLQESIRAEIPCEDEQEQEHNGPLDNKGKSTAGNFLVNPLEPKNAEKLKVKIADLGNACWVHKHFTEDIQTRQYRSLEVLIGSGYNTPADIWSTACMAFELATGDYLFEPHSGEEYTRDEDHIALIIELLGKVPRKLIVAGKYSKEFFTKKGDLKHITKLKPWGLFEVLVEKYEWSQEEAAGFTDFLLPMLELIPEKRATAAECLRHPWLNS
MAP3K4 (human), sequence (Q9Y6R4 whole entry, looked up): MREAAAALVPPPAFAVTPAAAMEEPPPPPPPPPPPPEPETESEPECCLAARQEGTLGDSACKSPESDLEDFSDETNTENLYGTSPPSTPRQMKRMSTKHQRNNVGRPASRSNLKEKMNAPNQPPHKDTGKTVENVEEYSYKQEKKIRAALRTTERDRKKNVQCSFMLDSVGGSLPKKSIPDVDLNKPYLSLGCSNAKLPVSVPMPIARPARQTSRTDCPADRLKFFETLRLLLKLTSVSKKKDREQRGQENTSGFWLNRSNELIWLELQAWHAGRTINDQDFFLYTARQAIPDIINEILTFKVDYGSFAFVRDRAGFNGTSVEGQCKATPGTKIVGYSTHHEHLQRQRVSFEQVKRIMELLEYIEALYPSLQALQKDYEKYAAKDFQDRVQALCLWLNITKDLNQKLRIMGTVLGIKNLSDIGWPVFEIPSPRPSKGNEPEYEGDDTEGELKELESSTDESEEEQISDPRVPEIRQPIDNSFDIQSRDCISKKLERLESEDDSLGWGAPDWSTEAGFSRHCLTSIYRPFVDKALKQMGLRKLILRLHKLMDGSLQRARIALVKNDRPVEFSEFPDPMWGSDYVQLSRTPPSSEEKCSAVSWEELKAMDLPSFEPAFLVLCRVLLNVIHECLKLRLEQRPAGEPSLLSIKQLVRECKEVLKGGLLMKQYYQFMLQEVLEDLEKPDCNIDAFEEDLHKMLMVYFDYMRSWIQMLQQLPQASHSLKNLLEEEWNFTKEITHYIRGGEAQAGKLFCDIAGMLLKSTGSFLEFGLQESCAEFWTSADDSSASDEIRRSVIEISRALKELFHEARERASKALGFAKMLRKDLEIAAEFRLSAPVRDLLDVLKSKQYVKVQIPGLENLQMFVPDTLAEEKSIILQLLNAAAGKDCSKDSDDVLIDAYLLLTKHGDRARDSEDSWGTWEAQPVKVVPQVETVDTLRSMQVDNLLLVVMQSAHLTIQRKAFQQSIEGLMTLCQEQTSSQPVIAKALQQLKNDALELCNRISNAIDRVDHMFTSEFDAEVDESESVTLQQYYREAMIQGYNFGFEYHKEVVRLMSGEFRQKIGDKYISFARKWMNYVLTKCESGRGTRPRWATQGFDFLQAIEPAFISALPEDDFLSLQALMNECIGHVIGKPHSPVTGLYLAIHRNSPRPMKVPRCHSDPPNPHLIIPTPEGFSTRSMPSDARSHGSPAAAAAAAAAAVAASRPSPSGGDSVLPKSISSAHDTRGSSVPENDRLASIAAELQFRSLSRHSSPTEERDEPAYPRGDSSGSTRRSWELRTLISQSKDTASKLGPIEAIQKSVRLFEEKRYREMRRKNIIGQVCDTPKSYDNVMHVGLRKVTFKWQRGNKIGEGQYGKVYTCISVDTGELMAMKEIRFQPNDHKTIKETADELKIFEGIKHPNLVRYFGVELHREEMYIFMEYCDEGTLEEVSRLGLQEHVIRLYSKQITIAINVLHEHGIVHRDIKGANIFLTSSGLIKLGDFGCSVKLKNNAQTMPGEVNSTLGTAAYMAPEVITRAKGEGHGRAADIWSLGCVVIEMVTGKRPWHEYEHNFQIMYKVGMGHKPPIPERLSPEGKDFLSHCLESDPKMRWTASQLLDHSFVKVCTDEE
SIK1 (human), sequence (P57059 whole entry, looked up): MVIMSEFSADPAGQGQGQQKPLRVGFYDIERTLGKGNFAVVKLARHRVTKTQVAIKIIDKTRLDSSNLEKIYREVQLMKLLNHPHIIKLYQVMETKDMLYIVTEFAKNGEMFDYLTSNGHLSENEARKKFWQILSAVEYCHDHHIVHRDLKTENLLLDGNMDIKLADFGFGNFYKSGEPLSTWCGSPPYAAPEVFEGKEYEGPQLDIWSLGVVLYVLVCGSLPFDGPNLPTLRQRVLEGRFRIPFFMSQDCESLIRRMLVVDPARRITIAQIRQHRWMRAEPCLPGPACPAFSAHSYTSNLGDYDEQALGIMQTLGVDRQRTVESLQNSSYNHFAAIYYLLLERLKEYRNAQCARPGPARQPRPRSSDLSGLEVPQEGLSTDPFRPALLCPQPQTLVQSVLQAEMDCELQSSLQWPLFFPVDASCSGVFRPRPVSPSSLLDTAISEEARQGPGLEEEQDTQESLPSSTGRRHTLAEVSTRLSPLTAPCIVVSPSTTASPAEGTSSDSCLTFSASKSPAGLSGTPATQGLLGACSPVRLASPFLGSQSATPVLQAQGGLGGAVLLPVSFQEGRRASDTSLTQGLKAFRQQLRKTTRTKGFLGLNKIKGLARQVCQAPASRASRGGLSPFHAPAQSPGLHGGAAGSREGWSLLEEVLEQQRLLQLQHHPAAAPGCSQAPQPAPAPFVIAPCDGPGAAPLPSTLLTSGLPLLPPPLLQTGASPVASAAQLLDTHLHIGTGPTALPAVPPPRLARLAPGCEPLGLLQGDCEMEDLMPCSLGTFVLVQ
MST4 (human), sequence (Q9P289 whole entry, looked up): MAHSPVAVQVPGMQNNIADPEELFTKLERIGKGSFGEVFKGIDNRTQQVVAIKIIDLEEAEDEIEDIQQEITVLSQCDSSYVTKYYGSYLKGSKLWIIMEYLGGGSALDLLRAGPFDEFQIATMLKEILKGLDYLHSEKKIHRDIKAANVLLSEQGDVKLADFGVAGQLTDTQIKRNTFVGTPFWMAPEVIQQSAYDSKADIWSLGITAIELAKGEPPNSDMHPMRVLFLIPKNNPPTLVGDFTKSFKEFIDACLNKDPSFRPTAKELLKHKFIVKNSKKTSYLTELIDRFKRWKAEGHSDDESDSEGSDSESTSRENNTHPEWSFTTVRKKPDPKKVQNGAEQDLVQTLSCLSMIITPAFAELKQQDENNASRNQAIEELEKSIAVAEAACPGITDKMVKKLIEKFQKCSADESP
DYRK1B (human), sequence (Q9Y463 whole entry, looked up): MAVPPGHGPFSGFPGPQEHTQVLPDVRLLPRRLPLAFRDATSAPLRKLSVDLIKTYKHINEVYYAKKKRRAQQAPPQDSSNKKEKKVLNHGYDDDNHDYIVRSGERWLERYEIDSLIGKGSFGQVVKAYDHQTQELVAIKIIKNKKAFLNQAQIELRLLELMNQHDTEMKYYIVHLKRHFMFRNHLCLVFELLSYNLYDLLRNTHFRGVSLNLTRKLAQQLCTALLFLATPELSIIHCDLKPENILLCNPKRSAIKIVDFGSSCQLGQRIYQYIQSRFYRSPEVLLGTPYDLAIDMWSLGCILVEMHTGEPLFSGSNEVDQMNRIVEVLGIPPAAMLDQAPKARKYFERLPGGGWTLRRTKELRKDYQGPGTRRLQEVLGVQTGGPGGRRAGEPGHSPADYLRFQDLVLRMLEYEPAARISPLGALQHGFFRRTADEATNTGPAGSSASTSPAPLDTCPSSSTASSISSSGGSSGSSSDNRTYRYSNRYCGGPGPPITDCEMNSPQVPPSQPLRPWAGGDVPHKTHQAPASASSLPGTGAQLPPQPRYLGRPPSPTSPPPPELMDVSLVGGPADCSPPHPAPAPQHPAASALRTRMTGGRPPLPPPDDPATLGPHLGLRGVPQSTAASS
ULK3 (human), sequence (Q6PHR2 whole entry, looked up): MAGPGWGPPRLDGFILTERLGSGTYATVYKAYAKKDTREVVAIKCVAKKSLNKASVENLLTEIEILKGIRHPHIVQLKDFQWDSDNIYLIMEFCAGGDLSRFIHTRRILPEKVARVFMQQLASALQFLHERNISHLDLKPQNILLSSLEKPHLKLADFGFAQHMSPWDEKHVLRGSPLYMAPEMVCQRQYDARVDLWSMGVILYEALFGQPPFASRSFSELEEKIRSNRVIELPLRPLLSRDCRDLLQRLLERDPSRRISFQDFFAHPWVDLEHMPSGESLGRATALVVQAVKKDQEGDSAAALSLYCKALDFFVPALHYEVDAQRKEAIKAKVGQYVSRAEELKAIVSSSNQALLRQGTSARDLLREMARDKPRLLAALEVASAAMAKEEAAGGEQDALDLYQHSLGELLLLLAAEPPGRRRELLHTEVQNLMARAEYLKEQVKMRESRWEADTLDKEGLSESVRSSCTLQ

In the case of COc1ccc(CNC(=O)Nc2ncc([N+](=O)[O-])s2)cc1, the kinase still bound, per cent of control [1] is reported as 78%, the kinase still bound, per cent of control [2] is reported as 100% and the kinase still bound, per cent of control [3] is reported as 84%. It also gave a kinase still bound, per cent of control [4] of 91%, a kinase still bound, per cent of control [5] of 86% and a kinase still bound, per cent of control [6] of 97%. The kinase still bound, per cent of control [7] was 100%, the kinase still bound, per cent of control [8] was 100% and the kinase still bound, per cent of control [9] was 100%. The kinase still bound, per cent of control [10] was 99%, the kinase still bound, per cent of control [11] was 100% and the kinase still bound, per cent of control [12] was 100%. It also gave a kinase still bound, per cent of control [13] of 95%, a kinase still bound, per cent of control [14] of 80% and a kinase still bound, per cent of control [15] of 100%. The kinase still bound, per cent of control [16] was 81%, the kinase still bound, per cent of control [17] was 95% and the kinase still bound, per cent of control [18] was 100%. The kinase still bound, per cent of control [19] was 93%, the kinase still bound, per cent of control [20] was 49% and the kinase still bound, per cent of control [21] was 100%. It also gave a kinase still bound, per cent of control [22] of 82%, a kinase still bound, per cent of control [23] of 42% and a kinase still bound, per cent of control [24] of 100%. For the same compound, the kinase still bound, per cent of control [25] was 100%, the kinase still bound, per cent of control [26] was 99% and the kinase still bound, per cent of control [27] was 100%. It also gave a kinase still bound, per cent of control [28] of 100%, a kinase still bound, per cent of control [29] of 100% and a kinase still bound, per cent of control [30] of 93%. It also gave a kinase still bound, per cent of control [31] of 95%, a kinase still bound, per cent of control [32] of 100% and a kinase still bound, per cent of control [33] of 96%. The kinase still bound, per cent of control [34] was 100%, the kinase still bound, per cent of control [35] was 99% and the kinase still bound, per cent of control [36] was 15%. For the same compound, the kinase still bound, per cent of control [37] was 94%, the kinase still bound, per cent of control [38] was 100% and the kinase still bound, per cent of control [39] was 100%. For the same compound, the kinase still bound, per cent of control [40] was 49%, the kinase still bound, per cent of control [41] was 100% and the kinase still bound, per cent of control [42] was 85%.
